Experimental data reported in EPA's ToxRefDB 2.

Columns and labels:
[1] = system: dog; conditions: Carcinogenicity; beagle; Oral; Capsule; dose end: 109 month; group: systemic; systemic / pathology microscopic / urinary bladder / carcinoma + systemic / clinical chemistry / alanine aminotransferase (alt/sgpt) / …
[2] = system: rat; conditions: Developmental neurotoxicity study, wistar, Oral, Water, dose end: 45 PND, group: cannot be grouped
[3] = system: rat; conditions: Developmental neurotoxicity study; long evans; Inhalation; Whole-Body; dose end: 160 PND; group: cannot be grouped; systemic / in life observation / body weight / body weight + developmental / developmental landmark / vaginal opening / vaginal opening + …
[4] = system: mouse; conditions: Sub-acute repeat dose toxicity, b6c3f1, Oral, Water, dose end: 14 day, group: systemic
[5] = system: rabbit; conditions: Prenatal developmental toxicity study; new zealand white; Oral; Water; dose end: 19 GD; group: maternal; systemic / in life observation / body weight / body weight gain + systemic / in life observation / food consumption / food consumption + …
[6] = system: rat; conditions: Multigenerational reproductive toxicity study, CD CRL:CD-BR, Oral, Water, dose end: 2 generation
[7] = system: mouse; conditions: Combined chronic toxicity/carcinogenicity; b6c3f1; Oral; Water; dose end: 103 week; group: systemic; systemic / clinical chemistry / flouride / fluoride + systemic / in life observation / clinical signs / tooth-attrition + systemic / in life…
[8] = system: rat; conditions: Sub-acute repeat dose toxicity, fischer, Oral, Water, dose end: 14 day, group: systemic
[9] = system: rat; conditions: Combined chronic toxicity/carcinogenicity; fischer; Oral; Water; dose end: 103 week; group: systemic; systemic / clinical chemistry / flouride / fluoride + systemic / in life observation / clinical signs / tooth-mottling + systemic / in life …
[10] = system: rat; conditions: Carcinogenicity, sprague dawley, Oral, Feed, dose end: 24 month, group: systemic
[11] = system: rat; conditions: Prenatal developmental toxicity study, other, Oral, Water, dose end: 20 GD, group: maternal
[12] = system: rat; conditions: Subchronic oral toxicity in rodents, fischer, Water, dose end: 6 month, group: systemic
[13] = system: mouse; conditions: Subchronic oral toxicity in rodents, B6C3F1, Water, dose end: 6 month, group: systemic
[14] = system: rat; conditions: Prenatal developmental toxicity study; other; Oral; Water; dose end: 15 GD; group: maternal; systemic / in life observation / body weight / body weight gain + systemic / in life observation / water consumption / water consumption
[15] = system: mouse; conditions: Sub-acute repeat dose toxicity, b6c3f1, Oral, Gavage/Intubation, dose end: 14 day, group: systemic
[16] = system: rat; conditions: Prenatal developmental toxicity study, sprague dawley, Oral, Gavage/Intubation, dose end: 15 GD
[17] = system: rat; conditions: Subchronic oral toxicity in rodents, fischer, Gavage/Intubation, dose end: 13 week, group: systemic
[18] = system: rabbit; conditions: Prenatal developmental toxicity study, new zealand white, Oral, Gavage/Intubation, dose end: 19 GD
[19] = system: rat; conditions: Sub-acute dermal toxicity, sprague dawley, Topical, dose end: 28 day, group: systemic
[20] = system: rat; conditions: Multigenerational reproductive toxicity study; sprague dawley; Oral; Gavage/Intubation; dose end: 2 generation; group: parental; systemic / organ weight / liver / nos
[21] = system: mouse; conditions: Subchronic oral toxicity in rodents, b6c3f1, Gavage/Intubation, dose end: 13 week, group: systemic
[22] = system: rat; conditions: Sub-acute repeat dose toxicity, fischer, Oral, Gavage/Intubation, dose end: 14 day, group: systemic
[23] = system: rat; conditions: Prenatal developmental toxicity study, sprague dawley, Oral, Gavage/Intubation, dose end: 15 GD; remark: listed apart in the source
[24] = systemic / clinical chemistry / dopamine / dopamine + systemic / clinical chemistry / protein / protein + systemic / in life observation / …
[25] = systemic / in life observation / body weight / body weight
[26] = group: offspring, systemic / in life observation / clinical signs / tooth nos
[27] = group: parental, systemic / in life observation / water consumption / water consumption + systemic / pathology microscopic / stomach / hyperkeratosis + …
[28] = systemic / in life observation / body weight / body weight + systemic / in life observation / clinical signs / dehydration + systemic / in …
[29] = systemic / in life observation / clinical signs / tooth-dysplasia + systemic / in life observation / clinical signs / tooth-discolored + …
[30] = systemic / organ weight / [other] / absolute + systemic / organ weight / [other] / relative to body weight + systemic / organ weight / …
[31] = systemic / in life observation / body weight / body weight gain + systemic / in life observation / food consumption / food consumption + …
[32] = systemic / pathology gross / stomach / hemorrhage + systemic / pathology gross / stomach / ulcer + systemic / pathology microscopic / …
[33] = systemic / in life observation / body weight / body weight gain
[34] = systemic / in life observation / body weight / body weight + systemic / in life observation / clinical signs / fur (altered appearance) + …
[35] = group: developmental, developmental / developmental malformation / bone / supernumerary + systemic / in life observation / body weight / fetal weight
[36] = group: maternal, systemic / in life observation / clinical signs / body surface staining + systemic / in life observation / clinical signs / salivation + …
[37] = systemic / in life observation / body weight / body weight + systemic / in life observation / clinical signs / defecation (diarrhea)
[38] = group: developmental, developmental / developmental malformation / bone / absent + developmental / developmental malformation / bone / malpositioned + …
[39] = group: maternal, systemic / in life observation / body weight / body weight gain + systemic / in life observation / food consumption / food consumption
[40] = group: maternal, systemic / in life observation / body weight / body weight gain + systemic / in life observation / food consumption / food consumption + …
[41] = systemic / in life observation / body weight / body weight gain + systemic / in life observation / clinical signs / erythema + systemic / in…
[42] = systemic / in life observation / clinical signs / erythema + systemic / pathology microscopic / skin / edema + systemic / in life …
[43] = systemic / pathology microscopic / liver / degeneration
[44] = systemic / pathology microscopic / liver / degeneration + systemic / in life observation / body weight / body weight + systemic / in life …
[45] = group: developmental, systemic / in life observation / body weight / fetal weight

With `Nc1ccc2ccccc2c1` [2-Naphthylamine] the LEL [1] was 18.4 mg/kg/day, the LOAEL [1] was over 18.4 mg/kg/day and the NEL [1] was under 18.4 mg/kg/day. It also gave an NOAEL [1] of at least 18.4 mg/kg/day.
`CO` [Methanol] gave an LOAEL [2, 24] of over 2000 mg/kg/day, an NEL [2, 24] of 500 mg/kg/day and an NOAEL [2, 24] of at least 2000 mg/kg/day. The LEL ([2]; systemic / clinical chemistry / protein / protein + systemic / clinical chemistry / dopamine / dopamine + systemic / in life observation / …) was 1000 mg/kg/day, the LEL [3] was 6110 mg/kg/day and the LOAEL [3] was over 6110 mg/kg/day. The NEL [3] was under 6110 mg/kg/day and the NOAEL [3] was at least 6110 mg/kg/day.
For `[F-].[Na+]` [Sodium fluoride], the LOAEL [4, 25] was 7.5 mg/kg/day, the NOAEL [4, 25] was under 7.5 mg/kg/day and the NEL ([4]; systemic / in life observation / body weight / body weight + systemic / in life observation / water consumption / water consumption) was 60 mg/kg/day. It also gave an LEL ([4]; systemic / in life observation / body weight / body weight + systemic / in life observation / water consumption / water consumption + …) of 120 mg/kg/day, an LEL [5] of 29 mg/kg/day and an LOAEL [5] of over 29 mg/kg/day. The NEL [5] was 18 mg/kg/day, the NOAEL [5] was at least 29 mg/kg/day and the LEL [6, 26] was 12.5 mg/kg/day. For the same molecule, the LOAEL [6, 26] was over 12.5 mg/kg/day, the NEL [6, 26] was 8.75 mg/kg/day and the NOAEL [6, 26] was at least 12.5 mg/kg/day. It also gave an LOAEL [6, 27] of over 12.5 mg/kg/day, an NEL [6, 27] of 1.25 mg/kg/day and an NOAEL [6, 27] of at least 12.5 mg/kg/day. For the same molecule, the LEL ([6]; group: parental, systemic / pathology microscopic / stomach / hyperkeratosis + systemic / in life observation / water consumption / water consumption) was 5 mg/kg/day, the LEL [7] was 2.4 mg/kg/day and the LOAEL [7] was 2.4 mg/kg/day. The NEL [7] was under 2.4 mg/kg/day, the NOAEL [7] was under 2.4 mg/kg/day and the LOAEL [8, 25] was 5 mg/kg/day. It also gave an LEL [8, 28] of 20 mg/kg/day, an NEL [8, 28] of 10 mg/kg/day and an NOAEL [8, 28] of 2.5 mg/kg/day. It also gave an LEL [9] of 1.3 mg/kg/day, an LOAEL [9] of 1.3 mg/kg/day and an NEL [9] of under 1.3 mg/kg/day. For the same molecule, the NOAEL [9] was under 1.3 mg/kg/day, the LEL [10, 29] was 4 mg/kg/day and the NEL [10, 29] was under 4 mg/kg/day. For the same molecule, the LOAEL [10, 30] was over 25 mg/kg/day, the NOAEL [10, 30] was at least 25 mg/kg/day and the LOAEL [11, 31] was over 25.1 mg/kg/day. It also gave an NEL [11, 31] of 15.6 mg/kg/day, an NOAEL [11, 31] of at least 25.1 mg/kg/day and an LEL ([11]; systemic / in life observation / water consumption / water consumption) of 24.7 mg/kg/day. It also gave an LOAEL [12, 32] of 15 mg/kg/day, an NEL [12, 32] of 1.5 mg/kg/day and an NOAEL [12, 32] of 5 mg/kg/day. For the same molecule, the LEL ([12]; systemic / pathology microscopic / stomach / hyperplasia) was 5 mg/kg/day, the LOAEL [13, 33] was 30 mg/kg/day and the NOAEL ([13]; systemic / in life observation / body weight / body weight gain + systemic / in life observation / clinical signs / [other] + systemic / in …) was 15 mg/kg/day. It also gave an NEL ([13]; systemic / in life observation / body weight / body weight gain + systemic / pathology microscopic / bone / proliferation + systemic / in …) of 1.5 mg/kg/day, an LEL ([13]; systemic / pathology microscopic / bone / proliferation) of 7.5 mg/kg/day and an LEL [14] of 27 mg/kg/day. It also gave an LOAEL [14] of over 27 mg/kg/day, an NEL [14] of 18 mg/kg/day and an NOAEL [14] of at least 27 mg/kg/day.
Molecule `O=S(=O)([O-])[O-].OC[P+](CO)(CO)CO.OC[P+](CO)(CO)CO` [Tetrakis(hydroxymethyl)phosphonium sulfate] has an LEL [15, 25] of 25 mg/kg/day, an LOAEL [15, 25] of 50 mg/kg/day and an NEL [15, 34] of 12.5 mg/kg/day. For the same molecule, the NOAEL [15, 34] was 25 mg/kg/day, the LEL [16, 35] was 60 mg/kg/day and the LOAEL [16, 35] was 60 mg/kg/day. For the same molecule, the NEL [16, 35] was 30 mg/kg/day, the NOAEL [16, 35] was 30 mg/kg/day and the LEL [16, 36] was 30 mg/kg/day. For the same molecule, the LOAEL [16, 36] was 30 mg/kg/day, the NEL [16, 36] was 15 mg/kg/day and the NOAEL [16, 36] was 15 mg/kg/day. The LEL [17, 37] was 5 mg/kg/day, the NEL [17, 37] was under 5 mg/kg/day and the NOAEL ([17]; systemic / in life observation / body weight / body weight + systemic / in life observation / clinical signs / defecation (diarrhea) + …) was 20 mg/kg/day. For the same molecule, the LOAEL ([17]; systemic / in life observation / body weight / body weight + systemic / pathology microscopic / liver / degeneration) was 40 mg/kg/day, the LEL [18, 38] was 60 mg/kg/day and the LOAEL [18, 38] was 60 mg/kg/day. It also gave an NEL [18, 38] of 18 mg/kg/day, an NOAEL [18, 38] of 18 mg/kg/day and an LOAEL [18, 39] of 60 mg/kg/day. The LEL [18, 40] was 60 mg/kg/day, the NEL [18, 40] was 18 mg/kg/day and the NOAEL [18, 40] was 18 mg/kg/day. The LOAEL [19, 41] was over 500 mg/kg/day, the NOAEL [19, 41] was at least 500 mg/kg/day and the LEL [19, 42] was 25 mg/kg/day. For the same molecule, the NEL [19, 42] was under 25 mg/kg/day, the LEL [20] was 15 mg/kg/day and the LOAEL [20] was over 15 mg/kg/day. The NEL [20] was 7.5 mg/kg/day, the NOAEL [20] was at least 15 mg/kg/day and the LEL [21, 43] was 20 mg/kg/day. The LOAEL [21, 43] was 20 mg/kg/day, the NEL [21, 44] was 10 mg/kg/day and the NOAEL [21, 44] was 10 mg/kg/day. For the same molecule, the LOAEL ([22]; systemic / in life observation / body weight / body weight + systemic / in life observation / body weight / body weight gain) was 25 mg/kg/day, the NOAEL ([22]; systemic / in life observation / body weight / body weight + systemic / in life observation / body weight / body weight gain + systemic / in…) was 12.5 mg/kg/day and the LEL [22, 33] was 25 mg/kg/day. The NEL ([22]; systemic / in life observation / body weight / body weight gain + systemic / in life observation / mortality / mortality) was 12.5 mg/kg/day, the LEL [23, 45] was 60 mg/kg/day and the LOAEL [23, 45] was 60 mg/kg/day. It also gave an NEL [23, 45] of 30 mg/kg/day, an NOAEL [23, 45] of 30 mg/kg/day and an LEL [23, 39] of 60 mg/kg/day. It also gave an LOAEL [23, 39] of 60 mg/kg/day, an NEL [23, 40] of 30 mg/kg/day and an NOAEL [23, 40] of 30 mg/kg/day.
